Measured values published in patent publication US11839623B2, “Antiviral prodrugs and formulations thereof” (BOARD OF REGENTS OF THE UNIVERSITY OF NEBRASKA, priority 2018, dated 2023).
Several values for one entry are separate records, joined by “and”; a condition that tells them apart may be missing. Equal entries are not always repeated.

How the values were obtained:
HIV-1ADA [1] = test: Antiretroviral activity of ABC and its ProTides against HIV-1ADA in MDM (RT activity); type: cell-based; conditions: human MDM, RT activity day 10 post infection
Method: (§1) Cell model for in vitro studies: Human peripheral blood monocytes were obtained and cultured as described (Gendelman, et al., J. Exp. Med. (1988) 167:1428-1441). Briefly, human peripheral blood monocytes were obtained by leukapheresis from HIV-1/2 and hepatitis B seronegative donors, followed by purification via countercurrent centrifugal elutriation. Elutriated monocytes were cultured as adherent cells in Dulbecco's […] medium (DMEM) supplemented with 10% heat-inactivated pooled human serum, 10 μg/mL ciprofloxacin, 50 μg/mL gentamicin, and 1000 U/mL recombinant macrophage colony stimulating factor. Cells were maintained at 37° C. in a 5% CO2 incubator. Seven days later, differentiated macrophages (MDM) were used for the experiments.
Antiretroviral activity of ABC and its ProTides: The antiviral activities of native ABC and ABC ProTides against HIV-1ADA were determined in MDM as described (Singh, et al., Nanomedicine (2016) 11:1913-1927). MDM were incubated with various concentrations of ABC or ABC ProTides for 60 minutes followed by infection with HIV-1ADA at a multiplicity of infection (MOI) of 0.01 for 4 hours. […] At day 10 post infection, supernatants were collected and analyzed for HIV-1 reverse transcriptase (RT) activity (Kalter, et al., J. Clin. Microbiol. (1992) 30:993-995).

[2] = test system: monocyte-derived macrophages (MDM); test: Intracellular level of CBV-TP in MDM treated with 10 μM ABC or ABC ProTides; type: cell-based; conditions: 10 μM drug; for maximum CBV-TP levels: 3-48 hours; for percentage decrease of intracellular CBV-TP from Cmax at 48 hours: (Cmax−Cmin)/(Cmax)*100
Method: as §1
Intracellular level of CBV-TP of ABC and its ProTides: Intracellular levels of CBV-TP were measured as described (Balzarini, et al., FEBS Lett. (2004) 573:38-44). MDM were treated with 10 μM ABC and ABC ProTides. At 3, 6, 12, 24 and 48 hours after treatment, MDM were washed with PBS to remove excess free drug. The cells were then collected in 70% methanol. CBV-TP from MDM was extracted and quantitated by LC-MS/MS as described (Gautam, et al., J. Pharm. Biomed. Anal. (2018) 153:248-259). Sep-Pak QMA cartridges (360 mg, 37-55 μm; Waters) were used to separate CBV-TP from their mono- and di-phosphates counterparts. The QMA cartridges were conditioned with 10 ml of 500 mM KCl followed by 10 ml of 5 mM KCl. Samples were loaded onto the cartridges and washed with 15 ml of 75 mM KCl. The triphosphate fraction was eluted with 3 ml of 500 mM KCl and collected for de-phosphorylation. The pH of the TP fraction was lowered to 4.25 by adding 15 μl ammonium acetate buffer (pH 4.10 mM) per ml eluate, and dephosphorylated by adding one unit of type XA sweet potato acid phosphatase per ml eluate and incubating at 37° C. for 30 minutes. The ^15N2^13C-3TC and d4-ABC internal standard was added at this point. Samples were then loaded onto Waters OASIS® HLB cartridges (60 mg, 30 μm; Waters) pre-conditioned with 3 ml MeOH and 3 ml H2O, and washed with 3.5 ml H2O to remove salts. The nucleosides of interest were then eluted with 1.5 ml of MeOH and evaporated under vacuum. Once dry, the residue was reconstituted with a 100 μl of 25% MeOH and stored in the −20° C. freezer until the time of LC-MS/MS analyses. The LC-MS/MS system comprised of a Waters ACQUITY ultra-performance liquid chromatography (UPLC) system (Waters, Milford, Mass.) coupled to a triple quadrupole mass spectrometer with electrospray ionization (ESI) source (Waters Xevo TQ-XS). For the indirect quantification of TPs, chromatographic separation was performed with an ACQUITY UPLC using CSH analytical column (2.1×100 mm, 1.7 μm; Waters) equipped with a guard column (Waters, Milford, Mass.). Mobile phase A consisted of ammonium bicarbonate (pH 7, 7.5 mM) and mobile phase B was methanol. The flow rate was 0.25 ml/minute. […] Mobile phase B was then reset to 12% over 0.25 minutes and the column was equilibrated for 2.75 minutes before the next injection. The total run time was 13 minutes. The mass spectrometer was operated in the positive ion mode using multiple reaction monitoring (MRM). The following transitions were monitored: m/z 230→112 for 3TC, m/z 248→152 for CBV, m/z 287→191 for ABC, m/z 233→115 for the internal standard (IS) ^15N2^13C-3TC, and m/z 291→195 for IS d4-ABC. 3TC, CBV, ABC, ^15N2^13C-3TC, and d4-ABC were detected at a cone voltage of 22, 2, 4, 12, and 2 V, respectively, and a collision energy of 12, 12, 20, 10, and 20 V, respectively.

[3] = test system: monocyte-derived macrophages (MDM); test: Cell viability of ABC and its ProTides in MDM (CCK-8); type: cell-based, human
Method: Cell viability of ABC and its ProTides: A CCK-8 Kit was purchased from Dojindo (Rockville, Md.) and used to test cell viability after treatment with ABC and its ProTides. Briefly, MDM plated in a 96-well plate were treated with 100 μl of 0-400 μM ABC and its ProTides for 24 hours. Drug containing medium was removed and replaced with fresh medium. Ten μl of CCK-8 solution was added to each well followed by incubation of the plate for 2 hours at 37° C. The absorbance (at 450 nm) of each well was measured using a microplate reader. The cell viability was calculated according to manufacturer's instructions.

Stability assay in serum = type: in vitro ADME, human; conditions: 37° C., 24 hours, 15 μg/ml
Method: Stability Assay in Serum: The experiment was carried out by adding each ProTide into 100 μl human serum to reach a final concentration of 15 μg/ml in glass vial, and duplicate samples were used for each ProTide. After incubating the samples at 37° C. with shaking for 24 hours, 900 μl of MeOH was added to stop the reaction. Samples were vortexed for 3 minutes, then centrifuged down at 16,000 g for 10 minutes. The supernatants were transfer to new 2 ml tubes and evaporated to dryness under vacuum. The samples were reconstituted using 50 μl of MeOH, vortexed for 3 minutes and centrifuged down at 16,000 g for 10 minutes. The supernatants were analyzed by HPLC for drug concentrations. For control sample (0 minute), MeOH were added first to stop the enzyme before adding the ProTides.

HIV-1ADA [4] = test: IC50 determination of ABC, MABC, PABC in MDM challenged with HIV-1ADA (RT activity); type: cell-based; conditions: HIV-1ADA MOI 0.1, RT activity day 10, read-out: IC50 on reverse transcriptase
Method: (§2) Antiretroviral activities. Antiretroviral efficacy was determined by measurements of HIV reverse transcriptase (RT) activity. For IC50 determination, MDM were exposed to various concentrations (0.01-1000 nM) of ABC, MABC or PABC for 1 hour followed by challenge with HIV-1ADA at a multiplicity of infection (MOI) of 0.1 infectious particles per cell for 4 hours. Following viral challenge, cells were washed and incubated with the same concentration of drug used before infection for an additional 10 days in culture. Culture fluids were collected on day 10 for the measurement of RT activity. To assess antiretroviral efficacy, MDM were treated with 100 μM ABC, PABC or NPABC as described above for 8 hours. After treatment, cells were washed with PBS and cultured with fresh media, with half-media exchanges every other day. At 0, 4, 12 hours, and 1, 5, 10, 15 or 20 days after treatment, cells were challenged with HIV-1ADA at an MOI of 0.1 infectious particles per cell for 16 hours. After viral infection, the cells were cultured an additional 10 days with half-media exchanges every other day. Culture fluids were collected for measurement of RT activity. Cells were fixed with 4% PFA and expression of HIV-1 p24 antigen was determined by immunocytochemistry.

[5] = Characterization of NPABC nanoparticles (DLS, drug loading); type: physicochemical; conditions: PABC nanocrystals
Description: The LASER ProTide nanocrystals (NPABC, NP3TC, NPFTC and NPTFV) may be coated with either cell or tissue receptor targeted or non-targeted poloxamer 407 (P407), poloxamer 338 (P338), 1,2-distearoyl-sn-glycero-3-phosphocholine (DSPC), 1,2-distearoyl-sn-glycero-3-phosphoethanolamine-N-carboxy(polyethylene glycol)-2000 (DSPE-PEG) or polyvinyl alcohol (PVA). The nanocrystals may also be stabilized with polysorbate and polyethylene glycol surfactants. Here, a drug to surfactant ratio of 2:1 by weight was used to manufacture NPABC nanoparticles. Briefly, 1-5% (w/v) PABC and 0.5-2.5% (w/v) P407 were mixed in sterile phosphate buffer. The premixed suspensions were nanoformulated by wet milling or high-pressure homogenization at 20,000-psi until desirable size and polydispersity index were achieved. The LASER ProTide nanoformulations were characterized for particle size, polydispersity index (PDI) and zeta potential by dynamic light scattering (DLS). […] For P407-PABC nanoparticles (NPABC), the average size (diameter) was 350 nm, the PDI was 0.28, and the charge was −21.4 mV.
Nanoparticle morphology was determined by scanning electron microscopy (SEM). UPLC MS/MS was used for drug quantitation. The conversion of ABC to PABC facilitated production of stable nanocrystals with a drug loading capacity of more than 70%.

HIV-1ADA [6] = test: Antiretroviral efficacy of ABC, PABC, NPABC in MDM challenged with HIV-1ADA (RT activity, p24); type: cell-based; conditions: 100 μM 8 hours
Method: as §2, with “Culture fluids were collected for measurement of RT activity.” left out
Significant improvements in MDM antiretroviral efficacy were also observed for PABC and NPABC. […] HIV-1 p24 was not detected in the PABC or NPABC-treated groups at the measured timepoints (FIG. 6). […]

Row | prodrug hydrolyzed/degraded in human serum (Stability assay in serum) | IC50 (HIV-1ADA [4]) [nM] | drug loading capacity [5] | Compound | EC50 (HIV-1ADA [1]) [nM] | maximum CBV-TP levels [2] [fmol per million cells] | CBV-TP levels at 48 hours [2] [fmol per million cells] | percentage decrease of intracellular CBV-TP from Cmax at 48 hours [2] | mitochondrial activity compared to ABC ([3]; 400 μM) | cell viability difference versus ABC ([3]; all tested drug concentrations (0-400 μM)) | antiretroviral activity compared to ABC (HIV-1ADA [6]) | HIV-1 p24 (HIV-1ADA [6]; challenge after 1-20 days)
1 | – | – | – | COC(=O)C(C)NP(=O)(OCC1C=CC(n2cnc3c(NC4CC4)nc(N)nc32)C1)Oc1ccccc1 (mixture of isomers) [M1ABC] | 1.8 | 35650 | 789 | 97% and 97.8% | differences in mitochondrial activity were seen | – | – | –
2 | Nineteen percent | – | – | CCCCCCCCCCCCCCCCCCCCCCOC(=O)C(Cc1ccccc1)NP(=O)(OCC1C=CC(n2cnc3c(NC4CC4)nc(N)nc32)C1)Oc1ccccc1 (mixture of isomers) [M3ABC] | 7 | 541 | 230 | 57% and 57.3% | – | No significant differences | – | –
3 | – | 20.5 | more than 70% | CCCCCCCCCCCCCCCCCCCCCCOC(=O)C(Cc1ccccc1)NP(=O)(OCC1C=CC(n2cnc3c(NC4CC4)nc(N)nc32)C1)Oc1ccccc1 (mixture of isomers) [PABC] | – | – | – | – | – | – | enhanced antiretroviral activity | not detected
4 | – | 227 | – | CCCCCCCCCCCCCC(=O)OCC1C=CC(n2cnc3c(NC4CC4)nc(N)nc32)C1 (stereo not shown) [MABC] | – | – | – | – | – | – | – | –
